Several values for one entry are separate records, joined by “and”; a condition that tells them apart may be missing. Equal entries are not always repeated.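 The compound was tested at five concentrations on cells cultured in 96-well plates, with a 48-hour exposure period. GI50: concentration for 50% inhibition of growth. Definition used: TGI = concentration required for complete inhibition of growth.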 Some results are limits rather than exact numbers.

The first assay has as its system HOP-92 NSCLC. Kind of assay: NCI-60 cell line screen, 48 h.
As to `COc1cc(-c2nn(-c3cccc(NC(=O)Nc4ccc(Cl)c(Cl)c4)c3)cc2-c2ccncc2)ccc1Cl`, the GI50 was 0.151 µM and the TGI stood at 1.47 µM.

In the case of `COc1ccc2[nH]cc(-c3nc(-c4c[nH]c5ncccc45)cs3)c2c1`, the GI50 was 2.13 µM and the TGI was determined as 8.12 µM.

Consider `CCCCCCNC(=O)c1nc(-c2ccccc2)oc1Cc1ccc(OP(=O)(O)O)cc1`, for which the GI50 is 14.2 µM and the TGI came to 27.9 µM.

For `Cc1ccc(/C=C/c2c(C(=O)/C=C/c3ccc(C(F)(F)F)cc3)c(C)nc3ccccc23)cc1`, the GI50 was 1.43 µM and the TGI turned out to be 2.98 µM.

As to `O=c1cc(-c2ccccc2)[nH]c2c(S)cccc12`, the TGI was more than 100 µM.

In the case of `CCCn1c(N)c(C(=O)N/N=C(/C)c2cc3cccc(OC)c3o2)sc1=S`, the GI50 is 27.4 µM and the TGI was 78.8 µM.

As to `C=CCc1cccc(/C=N/NC(=O)CN2CCN(Cc3ccccc3)CC2)c1O`, the GI50 was 1.28 µM and the TGI came out at 6.22 µM.

On to `N=c1ccn2c(n1)OC1C(O)C(CO)OC12` (stereo not given), for which the GI50 was 8.2 µM and 19.9 µM; the TGI was more than 811 µM.

Take `C[C@H]1Oc2cc(cnc2N)-c2c(nn(C)c2C#N)CN(C)C(=O)c2ccc(F)cc21`: the GI50 was 2.54 µM and the TGI is more than 54.2 µM.

`Cc1ccc(-c2nc3ccc([N+](=O)[O-])cc3[nH]2)cc1` returned a TGI of more than 100 µM.

With `CC(=O)c1cc2c(o1)C(=O)c1ccccc1C2=O`, the GI50 is 2.18 µM and 1.82 µM; the TGI was 4.24 µM and 3.47 µM.

For the compound `CCN(CC)c1nc(-c2ccc(Cl)cc2Cl)nc2ccccc12`, the GI50 was 22 µM and the TGI is 93.4 µM.

Turning to `Cc1nc2ccccc2nc1-c1ccc(N=[N+]([O-])c2ccc(-c3nc4ccccc4nc3C)cc2)cc1`, the TGI was more than 66.1 µM.

In another assay the test system is SK-MEL-5 melanoma. Kind of assay: NCI-60 cell line screen, 48 h.
As to `COc1cc(-c2nn(-c3cccc(NC(=O)Nc4ccc(Cl)c(Cl)c4)c3)cc2-c2ccncc2)ccc1Cl`, the GI50 was 0.741 µM and the TGI was 1.49 µM.

Take `COc1ccc2[nH]cc(-c3nc(-c4c[nH]c5ncccc45)cs3)c2c1`: the GI50 was 2.87 µM and the TGI is more than 100 µM.

`CCCCCCNC(=O)c1nc(-c2ccccc2)oc1Cc1ccc(OP(=O)(O)O)cc1`: the GI50 was 16.8 µM and the TGI turned out to be 30.7 µM.

Regarding `Cc1ccc(/C=C/c2c(C(=O)/C=C/c3ccc(C(F)(F)F)cc3)c(C)nc3ccccc23)cc1`, the GI50 is 1.54 µM and the TGI was determined as 2.87 µM.

The compound `O=c1cc(-c2ccccc2)[nH]c2c(S)cccc12` gave a TGI of more than 100 µM.

Take `CCCn1c(N)c(C(=O)N/N=C(/C)c2cc3cccc(OC)c3o2)sc1=S`: the GI50 was 36.1 µM and the TGI is more than 100 µM.

Turning to `C=CCc1cccc(/C=N/NC(=O)CN2CCN(Cc3ccccc3)CC2)c1O`, the GI50 was 1.26 µM and the TGI was 3.53 µM.

`N=c1ccn2c(n1)OC1C(O)C(CO)OC12` (stereo not given): the GI50 is 10.4 µM and the TGI was more than 1000 µM.

Turning to `C[C@H]1Oc2cc(cnc2N)-c2c(nn(C)c2C#N)CN(C)C(=O)c2ccc(F)cc21`, the GI50 is more than 74.8 µM and the TGI was more than 100 µM.

As to `Cc1ccc(-c2nc3ccc([N+](=O)[O-])cc3[nH]2)cc1`, the TGI is more than 100 µM.

For the compound `CC(=O)c1cc2c(o1)C(=O)c1ccccc1C2=O`, the GI50 is 0.169 µM and 0.173 µM; the TGI is 0.31 µM and 0.316 µM.

In the case of `CCN(CC)c1nc(-c2ccc(Cl)cc2Cl)nc2ccccc12`, the GI50 was 17.8 µM and the TGI was 33.3 µM.

Compound `Cc1nc2ccccc2nc1-c1ccc(N=[N+]([O-])c2ccc(-c3nc4ccccc4nc3C)cc2)cc1` had a TGI of more than 100 µM.

The test system of a further assay is RPMI-8226 leukemia. Kind of assay: NCI-60 cell line screen, 48 h.
Regarding `COc1cc(-c2nn(-c3cccc(NC(=O)Nc4ccc(Cl)c(Cl)c4)c3)cc2-c2ccncc2)ccc1Cl`, the GI50 is 0.388 µM and the TGI came out at 3.26 µM.

`COc1ccc2[nH]cc(-c3nc(-c4c[nH]c5ncccc45)cs3)c2c1`: the GI50 is 4.76 µM and the TGI was more than 100 µM.

On to `CCCCCCNC(=O)c1nc(-c2ccccc2)oc1Cc1ccc(OP(=O)(O)O)cc1`, for which the GI50 was 20.4 µM and the TGI turned out to be 49 µM.

As for `Cc1ccc(/C=C/c2c(C(=O)/C=C/c3ccc(C(F)(F)F)cc3)c(C)nc3ccccc23)cc1`, the GI50 is 0.46 µM and the TGI was determined as 2.92 µM.

With `O=c1cc(-c2ccccc2)[nH]c2c(S)cccc12`, the TGI is more than 100 µM.

Consider `CCCn1c(N)c(C(=O)N/N=C(/C)c2cc3cccc(OC)c3o2)sc1=S`, for which the GI50 was 53.6 µM and the TGI is more than 100 µM.

Regarding `C=CCc1cccc(/C=N/NC(=O)CN2CCN(Cc3ccccc3)CC2)c1O`, the GI50 was 1.47 µM and the TGI worked out at 12.7 µM.

As to `N=c1ccn2c(n1)OC1C(O)C(CO)OC12` (stereo not given), the GI50 is 3.97 µM and the TGI is more than 1000 µM.

On to `C[C@H]1Oc2cc(cnc2N)-c2c(nn(C)c2C#N)CN(C)C(=O)c2ccc(F)cc21`, for which the GI50 was more than 100 µM and the TGI was more than 100 µM.

The compound `Cc1ccc(-c2nc3ccc([N+](=O)[O-])cc3[nH]2)cc1` came in with a TGI of more than 100 µM.

Turning to `CC(=O)c1cc2c(o1)C(=O)c1ccccc1C2=O`, the GI50 was 0.731 µM and 0.917 µM; the TGI is 1.8 µM and 3.86 µM.

On to `CCN(CC)c1nc(-c2ccc(Cl)cc2Cl)nc2ccccc12`, for which the GI50 was 32.1 µM and the TGI is more than 100 µM.

Compound `Cc1nc2ccccc2nc1-c1ccc(N=[N+]([O-])c2ccc(-c3nc4ccccc4nc3C)cc2)cc1` registered a TGI of more than 100 µM.

In the next assay the test system is SF-268 CNS. Kind of assay: NCI-60 cell line screen, 48 h.
With `COc1cc(-c2nn(-c3cccc(NC(=O)Nc4ccc(Cl)c(Cl)c4)c3)cc2-c2ccncc2)ccc1Cl`, the GI50 was 1.51 µM and the TGI is 20.3 µM.

On to `COc1ccc2[nH]cc(-c3nc(-c4c[nH]c5ncccc45)cs3)c2c1`, for which the GI50 was 6.66 µM and the TGI was more than 100 µM.

As to `CCCCCCNC(=O)c1nc(-c2ccccc2)oc1Cc1ccc(OP(=O)(O)O)cc1`, the GI50 is 17.3 µM and the TGI is 35.4 µM.

For `Cc1ccc(/C=C/c2c(C(=O)/C=C/c3ccc(C(F)(F)F)cc3)c(C)nc3ccccc23)cc1`, the GI50 was 1.57 µM and the TGI amounted to 3.09 µM.

Turning to `O=c1cc(-c2ccccc2)[nH]c2c(S)cccc12`, the TGI is more than 100 µM.

`CCCn1c(N)c(C(=O)N/N=C(/C)c2cc3cccc(OC)c3o2)sc1=S`: the GI50 was 22.4 µM and the TGI was more than 100 µM.

Consider `C=CCc1cccc(/C=N/NC(=O)CN2CCN(Cc3ccccc3)CC2)c1O`, for which the GI50 is 1.99 µM and the TGI was determined as 16.4 µM.

For the compound `N=c1ccn2c(n1)OC1C(O)C(CO)OC12` (stereo not given), the GI50 is 2.41 µM and the TGI is more than 619 µM.

In the case of `C[C@H]1Oc2cc(cnc2N)-c2c(nn(C)c2C#N)CN(C)C(=O)c2ccc(F)cc21`, the GI50 was 27.1 µM and the TGI is more than 100 µM.

As for `Cc1ccc(-c2nc3ccc([N+](=O)[O-])cc3[nH]2)cc1`, the TGI is more than 100 µM.

`CC(=O)c1cc2c(o1)C(=O)c1ccccc1C2=O`: the GI50 was 0.28 µM and 0.513 µM; the TGI was 0.959 µM and 2.3 µM.

`CCN(CC)c1nc(-c2ccc(Cl)cc2Cl)nc2ccccc12`: the GI50 is 23.1 µM and the TGI was more than 68.8 µM.

In the case of `Cc1nc2ccccc2nc1-c1ccc(N=[N+]([O-])c2ccc(-c3nc4ccccc4nc3C)cc2)cc1`, the TGI was more than 100 µM.

In another assay the test system is SN12C renal. In words: NCI-60 cell line screen, 48 h.
For the compound `COc1cc(-c2nn(-c3cccc(NC(=O)Nc4ccc(Cl)c(Cl)c4)c3)cc2-c2ccncc2)ccc1Cl`, the GI50 is 1.47 µM and the TGI is more than 50 µM.

Consider `COc1ccc2[nH]cc(-c3nc(-c4c[nH]c5ncccc45)cs3)c2c1`, for which the GI50 is 4.96 µM and the TGI is more than 100 µM.

`CCCCCCNC(=O)c1nc(-c2ccccc2)oc1Cc1ccc(OP(=O)(O)O)cc1`: the GI50 is 17 µM and the TGI worked out at 32.9 µM.

For the compound `Cc1ccc(/C=C/c2c(C(=O)/C=C/c3ccc(C(F)(F)F)cc3)c(C)nc3ccccc23)cc1`, the GI50 is 1.51 µM and the TGI was determined as 2.97 µM.

In the case of `O=c1cc(-c2ccccc2)[nH]c2c(S)cccc12`, the TGI was more than 100 µM.

As for `CCCn1c(N)c(C(=O)N/N=C(/C)c2cc3cccc(OC)c3o2)sc1=S`, the GI50 was 45 µM and the TGI is more than 100 µM.

Consider `C=CCc1cccc(/C=N/NC(=O)CN2CCN(Cc3ccccc3)CC2)c1O`, for which the GI50 was 4.4 µM and the TGI is 18.9 µM.

In the case of `N=c1ccn2c(n1)OC1C(O)C(CO)OC12` (stereo not given), the GI50 is 3.13 µM and the TGI was more than 621 µM.

As for `C[C@H]1Oc2cc(cnc2N)-c2c(nn(C)c2C#N)CN(C)C(=O)c2ccc(F)cc21`, the GI50 is 43.1 µM and the TGI was more than 100 µM.

The compound `Cc1ccc(-c2nc3ccc([N+](=O)[O-])cc3[nH]2)cc1` showed a TGI of more than 100 µM.

As to `CC(=O)c1cc2c(o1)C(=O)c1ccccc1C2=O`, the GI50 is 0.177 µM and the TGI was 0.346 µM.

Take `CCN(CC)c1nc(-c2ccc(Cl)cc2Cl)nc2ccccc12`: the GI50 was 17.2 µM and the TGI was determined as 46.2 µM.

In turn, `Cc1nc2ccccc2nc1-c1ccc(N=[N+]([O-])c2ccc(-c3nc4ccccc4nc3C)cc2)cc1` returned a TGI of more than 100 µM.
